Measurements from patent US12447136B2, “Use of (5R,7R,10R)-12,15-dioxo-α-selinene in the preparation of drugs” (KUNMING INSTITUTE OF BOTANY, CHINESE ACADEMY OF SCIENCES, priority 2020, dated 2025).

Tested on: MPP^+-induced PC12 cell injury
Test: Protective effect on MPP+-induced PC12 cell injury (MTS cell viability)
Method: 1. PC12 poorly-differentiated cells were cultured in a medium containing Dulbecco's modified Eagle's medium (DMEM) high glucose+10% fetal bovine serum (FBS)+100 U/mL penicillin-streptomycin, in an incubator at 37° C. and 5% CO2.
2. When growing to 80% to 90%, the PC12 poorly-differentiated cells were subjected to trypsin digestion to obtain a cell suspension.
3. The cell suspension was aspirated into a 15 mL centrifuge tube, followed by centrifugation at 800 rpm for 5 min.
4. After the centrifugation, the centrifuge tube was sterilized with alcohol and placed into an ultra-clean bench, and a supernatant was poured into a waste liquid tank.
5. 5 mL of a new complete medium was added, followed by blowing the medium ten times by a pipette to disperse the cells as much as possible, wherein the blowing should not be performed by too large of a force.
6. 0.02 mL of the cell suspension was taken and added to a cell counting plate for counting.
7. The cell suspension was adjusted to have a cell concentration of 1×10^5 cells/mL, then added to a 96-well plate by 0.1 mL per well, and incubated in a cell incubator.
8. After 23 h, the original medium was aspirated, and a new medium (the formula of which was the same as that in the above step 1) was added; the compound to be tested was added; and 1 h later, MPP^+ was added (a final concentration of the MPP^+ in the system was 750 μM).
9. Experimental design: each group was designed and performed for 3 repetitions:
A blank group included only medium.
A model group (MPP^+) included medium and MPP^+ which was added with a final concentration of 750 μM.
A positive control group (vitamin E) included medium, vitamin E which was added with a final concentration of 0.2 μM, and MPP^+ which was subsequently added with a final concentration of 750 μM.
10. 24 h after adding the MPP^+, MTS was added; after 2 h, values were read for detection.

| Molecule | protective activity against MPP^+-induced PC12 cell injury (at concentrations of 1 μM and 2 μM (P<0.001)) | protective effect on MPP^+-induced PC12 cell injury (screening in the MPP^+-induced PC12 cell injury model, no concentration stated) | Cell viability (%) (0.2 μM compound or VE + 750 μM MPP^+, PC12 cells, MTS 24 h after MPP^+) |
| --- | --- | --- | --- |
| C=C(C=O)[C@@H]1CC[C@@]2(C)CCC=C(C=O)[C@@H]2C1 [PFC-37, (5R,7R,10R)-12,15-dioxo-α-selinene] | significant protective activity | significant protective effect |  |
| vitamin E [reference compound] |  |  | 75.70 ± 0.64 % |
